Test: Human HepG2 cell viability assay in 384 well format
Assay type: toxicity, cell-based
Design: dose 125 nL, time 70.5 hour; concentration not given beside the values
Conditions: HepG2 cells, read-out: Inhibition

## O=C(c1ccc(S(=O)(=O)NC2CCC2)cc1)N1CC[C@H]2CNC[C@H]21
  cytotoxicity at 70.5 h: -3.93%

## COC(=O)c1ccc(Cn2nc(C)cc2C)cc1
  cytotoxicity at 70.5 h: 12.9%

## CN(C)c1nccc(N(C)Cc2ncnn2C)n1
  cytotoxicity at 70.5 h: -3.04%

## CC[C@@H](c1ccccc1)n1c(CCN)n[nH]c1=O
  cytotoxicity at 70.5 h: -5.25%

## Cn1cnc(S(=O)(=O)NCCC(O)c2ccc3c(c2)OCO3)c1 (centres undefined)
  cytotoxicity at 70.5 h: 20.5%

## CCN1C(=O)CCC12CCCN(Cc1nccs1)CC2 (centres undefined)
  cytotoxicity at 70.5 h: -8.57%

## COc1cccc(C(=O)Nc2n[nH]c(C3CCCO3)n2)c1 (centres undefined)
  cytotoxicity at 70.5 h: 22.1%

## O=C(Nc1ccc(-c2ccccc2)cn1)C1CCN(C(=O)C2CC2)CC1
  cytotoxicity at 70.5 h: -1.82%

## CN(C)CCCN1CC2(CCN(C3CCCOC3)CC2)OC1=O (centres undefined)
  cytotoxicity at 70.5 h: -6.54%

## O=C(CNC1(c2ccc(Cl)cc2)CCOCC1)NC1CCCC1
  cytotoxicity at 70.5 h: 1.78%

## CCc1ccc(S(=O)(=O)Nc2cc(OC)c(OC)cc2C(=O)O)s1
  cytotoxicity at 70.5 h: 4.71%

## Cc1nc(C)n(CC2CN(CCc3ccncc3)CCO2)n1 (centres undefined)
  cytotoxicity at 70.5 h: -0.163%

## CC[C@H](C)[C@@H](CO)NC(C)Cc1ccccc1F (some centres undefined)
  cytotoxicity at 70.5 h: -2.57%

## Nc1nc2c(c(NCc3nccs3)n1)CCN(CC1CCCC1)CC2
  cytotoxicity at 70.5 h: -17.1%

## CO[C@H]1CN(c2ccccc2)S(=O)(=O)[C@@]12CCN(Cc1ccccc1)C2
  cytotoxicity at 70.5 h: 19.1%

## Cc1noc(CNC(=O)CN(C)c2nc3c(C)ccc(C)c3s2)n1
  cytotoxicity at 70.5 h: 12.2%

## CC(C)NC(=O)N1CCN(C(=O)NC(C)C)CC2(CNC(=O)C2)C1
  cytotoxicity at 70.5 h: 2.71%

## N#CC(NC(=O)CCCOc1cccnc1)c1ccccc1Cl (centres undefined)
  cytotoxicity at 70.5 h: -3.34%

## CC1(CO)COC(Cc2ccc(Cl)cc2)=N1 (centres undefined)
  cytotoxicity at 70.5 h: 21%

## CC(NCc1ccc(F)cc1)c1ccc(S(C)(=O)=O)cc1 (centres undefined)
  cytotoxicity at 70.5 h: -7.76%

## CCCc1nc(CNC(C)Cn2cccn2)cs1 (centres undefined)
  cytotoxicity at 70.5 h: 3.08%

## CS(=O)(=O)CCN(Cc1cccc(O)c1)C1CCC(O)CC1 (centres undefined)
  cytotoxicity at 70.5 h: -4.64%

## CC(=O)N1C[C@H]2CNC[C@@]2(C(=O)NCCCOc2cccnc2)C1
  cytotoxicity at 70.5 h: 20%

## CC(C)CN1Cc2nc(N)ncc2C1=O
  cytotoxicity at 70.5 h: -10.7%

## Cc1cccc(NC(=O)c2cncc(C3CCNCC3)n2)n1
  cytotoxicity at 70.5 h: -5.87%

## CN(C)C(=O)c1ccc2c(c1)N(C)C(CC(=O)NCCOCCO)CO2 (centres undefined)
  cytotoxicity at 70.5 h: 12.2%

## CN(Cc1ccccc1)c1cnn(CC2COCCO2)c(=O)c1 (centres undefined)
  cytotoxicity at 70.5 h: -2.99%

## COCC(=O)N1CCCC(c2csc(NC(C)=O)n2)C1 (centres undefined)
  cytotoxicity at 70.5 h: -8.74%

## O=C(N1CCOCC1)[C@@]12CCO[C@@H]1CCN(Cc1cccc(F)c1)C2
  cytotoxicity at 70.5 h: -8.34%

## CCN(CC)c1nc2ccsc2c(=O)n1CCC(=O)NCc1cccs1
  cytotoxicity at 70.5 h: -9.85%

## Cc1noc(C2CCN(Cc3cc(=O)n(C)c(=O)n3C)CC2)n1
  cytotoxicity at 70.5 h: -13.2%

## CN1CCOC(CNCC(=O)NCCC2=CCCCC2)C1 (centres undefined)
  cytotoxicity at 70.5 h: 4.71%

## Cc1cc(C)n(C2CN(C(=O)Cn3c(=O)c(C)nc4ccccc43)C2)n1
  cytotoxicity at 70.5 h: 30%

## CC(C)Cc1cc(CNC(=O)c2cccc3c2NCCC3)no1
  cytotoxicity at 70.5 h: -8.61%

## c1ccc2oc(CCCN3CCCC3c3noc(C4CC4)n3)nc2c1 (centres undefined)
  cytotoxicity at 70.5 h: 17.9%

## Cc1cc(C2CCCN2Cc2cc(=O)n(C)c(=O)n2C)on1 (centres undefined)
  cytotoxicity at 70.5 h: -12.3%

## CCOCC1CN(C(=O)Cc2ccccn2)Cc2c1cnn2CC (centres undefined)
  cytotoxicity at 70.5 h: 23.4%

## Cc1[nH]c(=O)c(C#N)cc1C(=O)N1C[C@@H](CN2CCCC2)C[C@H](CO)C1
  cytotoxicity at 70.5 h: -7.24%

## Cc1nccn1[C@@H]1CC[C@@H](NC(=O)Cn2c(C)nc3ccccc32)[C@H]1O
  cytotoxicity at 70.5 h: 0.7%

## CCOc1cc(NC(=O)N(C)Cc2ncnn2C)ccc1C
  cytotoxicity at 70.5 h: 20.6%

## CCNc1nnc(SC(C(=O)NCc2cccnc2)C(C)C)s1 (centres undefined)
  cytotoxicity at 70.5 h: -14.3%

## CCC(Nc1ncccn1)c1ccc(OC)cc1 (centres undefined)
  cytotoxicity at 70.5 h: 6.83%

## c1ccc2oc(CCCN3CCCC3Cn3cncn3)nc2c1 (centres undefined)
  cytotoxicity at 70.5 h: -15.6%

## CCOCC1c2c(ncn2C(C)C)CCN1C(=O)CC (centres undefined)
  cytotoxicity at 70.5 h: 7.88%

## COc1cc(N2C[C@H](C(=O)N3CCCC3)[C@@H]3CCO[C@@H]3C2)ncn1
  cytotoxicity at 70.5 h: -0.329%

## COCCNC(=O)CN1CC=C(n2c(C)nc(=O)c3ccccc32)CC1
  cytotoxicity at 70.5 h: 0.895%

## Cc1nc(C2(O)CCCNCC2)sc1CCOc1ccccc1Cl (centres undefined)
  cytotoxicity at 70.5 h: 1.01%

## Cc1cnn(CC(=O)N(CC2CN(C)CCO2)c2nccs2)c1 (centres undefined)
  cytotoxicity at 70.5 h: -14.4%

## CC(C)Cn1cncc1CNC(=O)c1cccc(-n2cnnc2)c1
  cytotoxicity at 70.5 h: 8.85%

## Cc1cc(C(=O)NC(C)Cc2ccc(N(C)C)cc2)n(C)n1 (centres undefined)
  cytotoxicity at 70.5 h: -1.34%

## O=C(c1cnc(C2CC2)s1)N1CCCC1Cn1cccn1 (centres undefined)
  cytotoxicity at 70.5 h: -4.89%

## Cc1nc(C(C)C)sc1C(=O)NCC(C)(C)N1CCOCC1
  cytotoxicity at 70.5 h: -8.1%

## Cc1ccc(CN2CCN(CC(=O)N(C)C)[C@@H]3CS(=O)(=O)C[C@@H]32)cc1C
  cytotoxicity at 70.5 h: -3.23%

## CNC(=O)c1cccc(CCNc2ccc(C#N)cn2)c1
  cytotoxicity at 70.5 h: 0.174%

## CC(=O)NCCn1ccc(-c2ccccn2)n1
  cytotoxicity at 70.5 h: -2.73%

## COc1cc(NCCNC(=O)c2ccc3[nH]ccc3c2)cc(OC)c1
  cytotoxicity at 70.5 h: -13.8%

## O=C(c1cccnc1)N1CCOC(c2ccc(-c3cncnc3)cn2)C1 (centres undefined)
  cytotoxicity at 70.5 h: -0.513%

## COCCN1C(=O)[C@H]2CC[C@@H]1CN(C(=O)Cc1ccc(O)c(Cl)c1)C2
  cytotoxicity at 70.5 h: 16.7%

## Cc1ccc(S(=O)(=O)N2CC[C@@H]3C[C@H](NC(=O)c4n[nH]cc4Cl)[C@@H]32)cc1
  cytotoxicity at 70.5 h: -1.23%

## CCN1CCN(c2ccc(F)cc2C(C)NCc2cscn2)CC1 (centres undefined)
  cytotoxicity at 70.5 h: -3.66%

## CCN(CC1CCOC1)S(=O)(=O)Cc1ccccc1Cl (centres undefined)
  cytotoxicity at 70.5 h: -6.21%

## Cc1c(NC(=O)NC(C)CCO)cccc1OC1CCCC1 (centres undefined)
  cytotoxicity at 70.5 h: -2.19%

## Cc1cnc(C(=O)N2CCCCC2c2[nH]ncc2S(C)(=O)=O)cn1 (centres undefined)
  cytotoxicity at 70.5 h: 3.44%

## COCCNC(=O)[C@H]1CN(c2ncccn2)C[C@H]2OCC[C@@H]12
  cytotoxicity at 70.5 h: -15.6%

## CN1CCCN(C(=O)c2nnn(-c3ccc(C(F)(F)F)cc3)n2)CC1
  cytotoxicity at 70.5 h: -4.86%

## O=C1N(c2cccnc2)CCC12CCCN(Cc1ccoc1)C2 (centres undefined)
  cytotoxicity at 70.5 h: -4.21%

## CCOCc1nc2c(c(N3CC=CC3)n1)CCN(Cc1ccco1)CC2
  cytotoxicity at 70.5 h: -3.14%

## CC[C@H](N)Cn1nc(-c2cccs2)oc1=O
  cytotoxicity at 70.5 h: -26.2%

## Cc1nn(CC(C)C)c(N(C)C)c1CNCc1ccc(CO)c(F)c1
  cytotoxicity at 70.5 h: 1.46%

## COc1ncccc1NC(=O)c1[nH]nc(C(C)C)c1Br
  cytotoxicity at 70.5 h: -8.6%

## Cn1ccc(C(=O)NC2CCC23CCN(C(=O)c2ccccn2)CC3)c1 (centres undefined)
  cytotoxicity at 70.5 h: -4.01%

## CN(C)C(=O)Cc1ccc(NC(=O)c2cn(C)nn2)cc1
  cytotoxicity at 70.5 h: -4.9%

## CC(C)[C@H](NC(=O)NC1CCS(=O)(=O)C1)C(=O)NCc1ccccc1 (some centres undefined)
  cytotoxicity at 70.5 h: -19%

## CCN1CCn2c(C)cnc2C12CCN(C(=O)c1cscn1)CC2
  cytotoxicity at 70.5 h: 4.22%

## Cc1ncsc1-c1nnc(C2CCN(Cc3cccc(Cl)c3)CC2)o1
  cytotoxicity at 70.5 h: -1.29%

## Cc1nc(-c2cccnc2)ncc1C(=O)N1CCC(c2ncc[nH]2)CC1
  cytotoxicity at 70.5 h: -3.5%

## N#Cc1ccc(C(=O)N2CC[C@H]3[C@@H]2CCC(=O)N3c2ccccc2)cc1
  cytotoxicity at 70.5 h: -12%

## O=C([C@@H]1COC[C@H]2CN(C3CCCC3)C[C@H]21)N1CCCO1
  cytotoxicity at 70.5 h: -1.63%

## COc1c(F)cc(CN2CCC3(CC2)C(C(=O)O)CC(=O)N3C)cc1Cl (centres undefined)
  cytotoxicity at 70.5 h: -3.91%

From ChEMBL document CHEMBL3507680, “University of Dundee, Gates Library screen for HepG2 cell viability”
